According to the NIST ThermoML archive (doi:10.1016/j.jct.2008.04.013):
“And” between values parts separate entries of the source, which are not always exact repeats. Equal values may be shown once. ± gives the expanded uncertainty stated by the source.

Conditions: Liquid, Calculated from knudsen effusion weight loss

CC(=O)c1ccc(C(=O)O)s1 [5-acetyl-2-thiophenecarboxylic acid]
vapor or sublimation pressure (364.15 K): 0.00011 ± 6e-06 kPa and 0.000108 ± 5e-06 kPa and 0.000105 ± 5e-06 kPa | vapor or sublimation pressure (366.18 K): 0.000133 ± 7e-06 kPa and 0.000135 ± 7e-06 kPa and 0.000129 ± 6e-06 kPa | vapor or sublimation pressure (368.18 K): 0.000163 ± 8e-06 kPa and 0.00016 ± 8e-06 kPa | vapor or sublimation pressure (370.15 K): 0.000205 ± 1e-05 kPa and 0.0002 ± 1e-05 kPa and 0.000208 ± 1e-05 kPa | vapor or sublimation pressure (372.17 K): 0.000252 ± 1.3e-05 kPa and 0.00025 ± 1.3e-05 kPa and 0.000244 ± 1.2e-05 kPa | vapor or sublimation pressure (374.17 K): 0.000303 ± 1.5e-05 kPa and 0.000307 ± 1.5e-05 kPa and 0.000298 ± 1.5e-05 kPa | vapor or sublimation pressure (376.15 K): 0.000392 ± 2e-05 kPa and 0.000387 ± 1.9e-05 kPa and 0.000376 ± 1.9e-05 kPa | vapor or sublimation pressure (378.17 K): 0.000471 ± 2.4e-05 kPa and 0.000472 ± 2.4e-05 kPa and 0.000451 ± 2.3e-05 kPa | vapor or sublimation pressure (380.18 K): 0.000578 ± 2.9e-05 kPa and 0.000568 ± 2.8e-05 kPa and 0.000548 ± 2.7e-05 kPa | vapor or sublimation pressure (382.18 K): 0.000707 ± 3.5e-05 kPa and 0.000698 ± 3.5e-05 kPa and 0.000683 ± 3.4e-05 kPa | vapor or sublimation pressure (384.18 K): 0.000819 ± 4.1e-05 kPa and 0.000846 ± 4.2e-05 kPa and 0.000816 ± 4.1e-05 kPa | vapor or sublimation pressure (386.17 K): 0.001019 ± 0.0001 kPa and 0.001018 ± 0.0001 kPa and 0.000988 ± 4.9e-05 kPa

Cc1ccc(C(=O)O)s1 [5-methyl-2-thiophenecarboxylic acid]
vapor or sublimation pressure (316.29 K): 9e-05 ± 5e-06 kPa and 8.8e-05 ± 4e-06 kPa and 8.9e-05 ± 5e-06 kPa | vapor or sublimation pressure (318.25 K): 0.000113 ± 6e-06 kPa and 0.000112 ± 6e-06 kPa and 0.00011 ± 6e-06 kPa | vapor or sublimation pressure (320.12 K): 0.000139 ± 7e-06 kPa | vapor or sublimation pressure (322.28 K): 0.00018 ± 9e-06 kPa and 0.000183 ± 9e-06 kPa | vapor or sublimation pressure (324.24 K): 0.000229 ± 1.1e-05 kPa and 0.000226 ± 1.1e-05 kPa and 0.000222 ± 1.1e-05 kPa | vapor or sublimation pressure (326.12 K): 0.000273 ± 1.4e-05 kPa and 0.000278 ± 1.4e-05 kPa and 0.000276 ± 1.4e-05 kPa | vapor or sublimation pressure (328.28 K): 0.000341 ± 1.7e-05 kPa and 0.000356 ± 1.8e-05 kPa and 0.000355 ± 1.8e-05 kPa | vapor or sublimation pressure (330.22 K): 0.000441 ± 2.2e-05 kPa and 0.000439 ± 2.2e-05 kPa and 0.000427 ± 2.1e-05 kPa | vapor or sublimation pressure (332.11 K): 0.00054 ± 2.7e-05 kPa and 0.000539 ± 2.7e-05 kPa | vapor or sublimation pressure (334.28 K): 0.0007 ± 3.5e-05 kPa and 0.000697 ± 3.5e-05 kPa and 0.00069 ± 3.5e-05 kPa | vapor or sublimation pressure (336.22 K): 0.000859 ± 4.3e-05 kPa and 0.000855 ± 4.3e-05 kPa and 0.000843 ± 4.2e-05 kPa | vapor or sublimation pressure (338.11 K): 0.001049 ± 0.00011 kPa and 0.001053 ± 0.00011 kPa and 0.001028 ± 0.0001 kPa

Cc1ccsc1C(=O)O [3-methyl-2-thiophenecarboxylic acid]
vapor or sublimation pressure (312.13 K): 0.000104 ± 5e-06 kPa and 0.000102 ± 5e-06 kPa | vapor or sublimation pressure (314.2 K): 0.000129 ± 6e-06 kPa and 0.00013 ± 7e-06 kPa and 0.000126 ± 6e-06 kPa | vapor or sublimation pressure (316.22 K): 0.000164 ± 8e-06 kPa and 0.000162 ± 8e-06 kPa and 0.000159 ± 8e-06 kPa | vapor or sublimation pressure (318.13 K): 0.000205 ± 1e-05 kPa and 0.000204 ± 1e-05 kPa and 0.000209 ± 1e-05 kPa | vapor or sublimation pressure (320.19 K): 0.000264 ± 1.3e-05 kPa and 0.000261 ± 1.3e-05 kPa and 0.000254 ± 1.3e-05 kPa | vapor or sublimation pressure (322.21 K): 0.000323 ± 1.6e-05 kPa and 0.00032 ± 1.6e-05 kPa and 0.000314 ± 1.6e-05 kPa | vapor or sublimation pressure (324.14 K): 0.000412 ± 2.1e-05 kPa and 0.000407 ± 2e-05 kPa and 0.000418 ± 2.1e-05 kPa | vapor or sublimation pressure (326.18 K): 0.000507 ± 2.5e-05 kPa and 0.000503 ± 2.5e-05 kPa | vapor or sublimation pressure (328.21 K): 0.000636 ± 3.2e-05 kPa and 0.00063 ± 3.2e-05 kPa | vapor or sublimation pressure (330.15 K): 0.000798 ± 4e-05 kPa and 0.000786 ± 3.9e-05 kPa and 0.000769 ± 3.9e-05 kPa | vapor or sublimation pressure (332.23 K): 0.000984 ± 4.9e-05 kPa and 0.000972 ± 4.9e-05 kPa and 0.00094 ± 4.7e-05 kPa | vapor or sublimation pressure (334.2 K): 0.001191 ± 0.00012 kPa and 0.001174 ± 0.00012 kPa and 0.001146 ± 0.00012 kPa
